Results reported in patent US5817670A, “Naphthyridine derivatives and pharmaceutical compositions thereof” (Yamanouchi Pharmaceutical Co., Ltd., priority 1994, dated 1998).
Structures can show the parent of a compound that is named as a salt.

What follows are molecules tested against T1, type V phosphodiesterase (Homo sapiens, UniProt O76074) (assay: Phosphodiesterase inhibition activity (in vitro), Type V). Details: 1 μM cGMP.
T1 construct: from tissue; host or cells: human peripheral blood granulocyte fraction, soluble, Q Sepharose
Assay type: biochemical, human (peripheral blood of a healthy person)
Source text: (A) In order to evaluate selectivity of the compounds of the present invention for type IV phosphodiesterase, types I, II, III and V phosphodiesterase isozymes were purified in the following manner.
2) Solutions containing various phosphodiesterase isozymes were obtained from the thus obtained soluble fraction in the following manner. The thus, obtained soluble fraction was applied to a column of 1.6×10.0 cm packed with Q Sepharose which had been equilibrated with buffer A. Next, said column was washed with 300 ml of buffer A to remove non-absorbed protein. Phosphodiesterase was eluted with 200 ml of buffer A having 0.05 to 1.25M linear gradient of sodium acetate to collect about 40 fractions each containing 5.0 ml eluate. Each fraction was checked for cAMP- and cGMP-metabolizing phosphodiesterase activities. Of these fractions, a fraction having only cAMP-metabolizing activity and showing disappearance of the metabolizing activity by 0.1 μM cilostamide (a type III phosphodiesterase selective inhibitor) was used as the type III phosphodiesterase. […] These fractions were separately collected to be used as phosphodiesterase (types I, II and III) stock solutions for the examination of selectivity. p1 3) A solution containing type V phosphodiesterase was prepared from peripheral blood of a healthy person in the following manner. A 200 ml portion of physiological saline supplemented with dextran (3%) was added to 500 ml of heparinized peripheral blood and incubated at 37° C. for 40 minutes to effect precipitation of erythrocytes. The supernatant fluid after precipitation of erythrocytes was recovered and centrifuged once, and the resulting precipitate was suspended in buffer B (140 mM NaCl, 5 mM KCl, 5 mm glucose and 10 mM HEPES, pH 7.4), overlaid on a solution for density gradient centrifugation use (Ficoll solution) and then centrifuged at room temperature for 40 minutes at 450×g, thereby separating monocyte fraction and granulocyte fraction. The granulocyte fraction was washed once with buffer C (140 mM NaCl, 5 mM KCl, 1 mM CaCl2, 1 mM MgCl2, 5 mM glucose and 10 mM HEPES, pH 7.4) and suspended in buffer D (20 mM Bis-Tris, 5 mM dithioerythritol, 2 mM EGTA and 50 mM sodium acetate, pH 6.5) containing a protease inhibitor (40 μM leupeptin, 5 μM pepstatin A, 20 μM aprotinin, 50 μM phenyl-methyl-sulfonyl-fluoride or 2 mM benzamidine) and then the cells were disrupted using polytron and sonicator and subjected to ultracentrifugation (4° C., 100,000×g, 60 minutes) to give a soluble fraction.
4) The thus obtained soluble fraction was applied to a column of 1.6×10 cm packed with Q Sepharose which had been equilibrated with buffer D. Next, the column was washed with 120 ml of buffer D to remove non-absorbed protein. Phosphodiesterase was eluted with 300 ml of buffer D having 0.05 to 1.25M linear gradient of sodium acetate to collect fractions each containing 5.0 ml eluate. Each fraction was checked for cAMP- and cGMP-metabolizing phosphodiesterase activities. Fractions having only cGMP metabolizing activity were collected to be used as the type V phosphodiesterase stock solution.
(B) Inhibitory activities were measured using the thus obtained stock solutions of various phosphodiesterase isozymes.
1) A predetermined amount of each compound to be tested was subjected to 10 minutes of reaction at 30° C. in a reaction mixture containing 40 mM Tris-HCl (pH 8.0), 5 mM MgCl2, 4 mM 2-mercaptoethanol, 10 μM rolipram (a type IV phosphodiesterase selective inhibitor), 1 μM cAMP, 10 nM ^3 H-cAMP (in the case of type V phosphodiesterase, 1 μM cAMP and 10 nM ^3 H-cAMP are replaced by 1 μM cGMP and 100 nM ^3 H-cGMP) and each of the isozyme stock solutions. After completion of the reaction, the reaction mixture was boiled at 90° C. for 1 minute, ice-cooled, mixed with 1 unit of 5'-nucleotidase and then subjected to 10 minutes of reaction at 30° C., and the reaction was stopped by adding 1 ml of methanol. […]
Work on `CCc1cc(C)c2c(-c3cccc(Cl)c3)cc(=O)n(C)c2n1` [Example 27, 4-(3-Chlorophenyl)-7-ethyl-1,5-dimethyl-1,8-naphthyridin-2(1H)-one] yielded an IC50 of 27.9 µM. `CCc1cc(C)c2c(-c3ccccc3)cc(=O)n(CC)c2n1` [Example 40, 1,7-Diethyl-5-methyl-4-phenyl-1,8-naphthyridin-2(1H)-one] was tested, and the IC50 was 14.5 µM. In the case of `Cc1cc(C)c2c(-c3cccc(Cl)c3)cc(=O)n(C)c2n1` [Example 24, 4-(3-chlorophenyl)-1,5,7-trimethyl-1,8-naphthyridin-2(1H)-one], the IC50 is reported as 9.7 µM. With `CCc1cc(C)c2c(-c3cccc(Br)c3)cc(=O)n(CC)c2n1` [Example 31, 4-(3-bromophenyl)-1,7-diethyl-5-methyl-1,8-naphthyridin-2(1H)-one] the IC50 was over 30 µM. Work on `CCn1c(=O)cc(-c2cccc(Cl)c2)c2c(C)cc(C)nc21` [Example 29, 4-(3-Chlorophenyl)-1-ethyl-5,7-dimethyl-1,8-naphthyridin-2(1H)-one] yielded an IC50 of 24.6 µM. `CCn1c(=O)cc(-c2ccccc2)c2c(C)cc(C)nc21` [Example 38, 1-Ethyl-5,7-dimethyl-4-phenyl-1,8-naphthyridin-2(1H)-one] was tested, and the IC50 was 19.6 µM. Work on `CCCn1c(=O)cc(-c2cccc(Br)c2)c2c(C)cc(CC)nc21` [Example 33, 4-(3-Bromophenyl)-7-ethyl-5-methyl-1-propyl-1,8-naphthyridin-2(1H)-one] yielded an IC50 of 8.39 µM. For `CCc1cc(C)c2c(C3CCCCC3)cc(=O)n(CC)c2n1` [Example 49, 4-cyclohexyl-1,7-diethyl-5-methyl-1,8-naphthyridin-2(1H)-one], the IC50 was 3.87 µM. `CCc1cc(C)c2c(-c3cccc(Cl)c3)cc(=S)n(C)c2n1` [Example 43, 4-(3-chlorophenyl)-7-ethyl-1,5-dimethyl-1,8-naphthyridine-2(1H)-thione] was tested, and the IC50 was 4.79 µM. With `CCn1c(=O)cc(C2CCCCC2)c2cccnc21` [Example 46, 4-cyclohexyl-1-ethyl-1,8-naphthyridin-2(1H)-one 0.45 hydrochloride 0.25 hydrate] the IC50 was 87 µM. `CCn1c(=O)cc(-c2cccc(Cl)c2)c2cccnc21` [Example 15, 4-(3-Chlorophenyl)-1-ethyl-1,8-naphthyridin-2(1H)-one] gave an IC50 of 41.2 µM. `CCn1c(=O)cc(-c2cccc(Br)c2)c2c(C)cc(C)nc21` [Example 30, 4-(3-Bromophenyl)-1-ethyl-5,7-dimethyl-1,8-naphthyridin-2(1H)-one] showed an IC50 of 8.66 µM. `CCc1cc(C)c2c(-c3cccc(Cl)c3)cc(=O)n(C3CC3)c2n1` [Example 35, 4-(3-Chlorophenyl)-1-cyclopropyl-7-ethyl-5-methyl-1,8-naphthyridin-2(1H)-on] was tested, and the IC50 was 41.6 µM. `CCc1cc(C)c2c(-c3ccccc3)cc(=O)n(C)c2n1` [Example 26, 7-Ethyl-1,5-dimethyl-4-phenyl-1,8-naphthyridin-2(1H)-one] showed an IC50 of 27.3 µM.
